Laboratory results: patent US11612581B2, “Cannabis and derivatives thereof for the treatment of pain and inflammation related with dental pulp and bone regeneration related to dental jaw bone defects” (CANNIBITE BVBA, priority 2017, dated 2023)

Experiments:
[1] = system: bacteria's from the nerve fiber; assay: Bacteria on nerve fiber of pulp removed by pulpectomy, phase contrast microscopy without staining; format: cell-based
Method: A patent diagnosed with acute pulpitis with severe signs of pain on cold irritants, percussion pain with x-ray deep caries radiolucent areas adjacent to the coronal pulp. Hyperemia is evident in the dental canal system when opening of the coronal part of pulp chamber.
Pulpectomy (Removal of the entire pulp structure of a tooth, including the pulp tissue in the roots) was performed. The pulp was analyzed by phase contrast microscopy without staining.
Following Pulpectomy a solution of 0.1 ml CBD (25%) was applied for 1 min.
The same application was made with a Clorhexidine gluconate 2% solution used in endodontics to rinse canal system of the roots. A reduction of less than 20% in bacteria's was observed.

[2] = system: chronic irreversible pulpitis combined with periapical lesion; assay: Root canal treatment with CBD added to dressing and sealer, bone regeneration by X-ray (Patient 1); format: in vivo, human
Method: Histology slides prepared after pulpectomy of a second mandibular molar diagnosed with chronic irreversible pulpitis combined with periapical lesion (FIG. 6).
The treatment was performed with regular methods, in 2 steps 1 week rest. In the temporary dressing of the root canal medication Hydroxide Calcium was introduced 0.1 ml of CBD (25%) as well in the permanent sealer EWT Ken pulp sealer was introduced 0.5 ml of CBD (25%), pulp canal system sealed with sealer and gutta-percha.
With standard treatment for periapical lesion, regeneration is usually noticed 6 months after treatment.

[3] = system: pulp extract from the teeth; assay: Pulp extract treated in-vitro and sent to pathology lab (samples 1a, 1b); format: cell-based, human; conditions: 0.1 ml of Clorhexidine Gluconate 2% (sample 1a) or CBD 25% (sample 1b)
Method: The pulp extract from the teeth was treated in-vitro and was sent to pathology lab. Pulp was extracted and separated to two samples:
Sample 1a was treated with 0.1 ml Clorhexidine Gluconate 2%.

vestibular canal pulp = assay: Extracted dental pulp of hemisected wisdom tooth treated with CBD solution (samples 3a, 3b); format: cell-based, human; conditions: sample 3b, 0.1 ml 25% solution, compared to 3a (Formalin)
Method: A patient with chronic irreversible pulpitis element 28 wisdom tooth.
The element was hemisected and dental pulp extracted from tooth.
Sample 3a: Palatinal pulp was placed in Formalin.
Sample 3b: 0.1 ml CDB (25%) solution was applied to the vestibular canal pulp.

live bacterial cells = assay: Anti-bacterial activity on inflamed dental pulp and dental plaque samples, Dojindo staining, Cytation 5 imaging; format: cell-based; conditions: incubated for 5 min
Method: CDB Solutions: Two CBD solutions were prepared at concentrations of 12.5% and 25% by dissolving CDB (as powder, 98% purity) in methanol to obtain the desired concentration.
Samples of inflamed dental pulp and dental plaque were collected from various subjects and incubated at 37° C. for 24 hours
The samples where then treated with CBD solutions (12.5% and 25%) and incubated for 5 min. The samples were stained with Dojindo Rapid staining kit BS02 and evaluated under a Cytation 5 cell imaging microscope.

mid-femoral fractures = conditions: rats with mid-femoral fractures, after eight weeks; cited from earlier work
[4] = relative to THC; cited from earlier work

Structure (SMILES) | reduction of bacteria's from the nerve fiber ([1]; 0.1 ml CBD (25%) applied for 1 min following pulpectomy) | bone regeneration on re-examination ([2]; 8 weeks after treatment) | bone regeneration in the apical region by X-ray ([2]; after 1 week, 0.1 ml CBD (25%) in Hydroxide Calcium dressing, 0.5 ml CBD (25%) in sealer) | pathology lab findings of treated pulp sample [3] | inflammation and infection of pulp sample (vestibular canal pulp) | reduction in live bacterial cells as compared to an untreated sample (live bacterial cells; 12.5% CBD solution) [%] | reduction in live bacterial cells as compared to an untreated sample (live bacterial cells; 25% CBD solution) [%] | bone fractures healing (mid-femoral fractures) | reduction in bacteria's ([1]; Clorhexidine gluconate 2% solution, same application) | less active than THC [4] [%]
C=C(C)[C@@H]1CCC(C)=C[C@H]1c1c(O)cc(CCCCC)cc1O [CBD, cannabidiol] | total reduction | total regeneration | bone regeneration was identified | connective tissue, bone and no bacteria | no inflammation and no infection | > 75 | > 90 | enhances bone fractures healing | – | –
N=C(NCCCCCCNC(=N)NC(=N)Nc1ccc(Cl)cc1)NC(=N)Nc1ccc(Cl)cc1.O=C(O)[C@H](O)[C@@H](O)[C@H](O)[C@H](O)CO.O=C(O)[C@H](O)[C@@H](O)[C@H](O)[C@H](O)CO [Clorhexidine gluconate] | – | – | – | debris, bacteria, and enamel cement | – | – | – | – | less than 20% | –
CCCCCc1cc(O)c2c(c1)OC(C)(C)[C@@H]1CC=C(C)C[C@@H]21 [Δ8-THC] | – | – | – | – | – | – | – | – | – | ~20
